# Results: US8473035B2, “Medical imaging systems” (Beth Israel Deaconess Medical Center, priority 2003, dated 2013)
# What was measured:
# [1] = tested on: mitochondria and/or endoplasmic reticulum; assay: partitioning of the dye into subcellular organelles; format: cell-based
# Excerpt: (§1) More generally, IR-786 may be used for non-radioactive imaging of areas of ischemia in the living heart, or other visualization of the viability of other tissues.
# blood flow in the heart = assay: imaging of blood flow in the heart of a living laboratory rat after a thoracotomy; format: in vivo
# Excerpt: as §1
# [2] = in vivo early half-life of the dye; conditions: small molecule form
# Excerpt: This permits multiple injections during a single procedure.
# [3] = solubility of the dye in blood
in vivo early half-life [2],solubility in blood [3],SMILES,partitioning into mitochondria and/or endoplasmic reticulum [1],imaging of blood flow in the heart (blood flow in the heart)
,,CN1C(=CC=C2CCCC(C=CC3=[N+](C)c4ccccc4C3(C)C)=C2Cl)C(C)(C)c2ccccc21.[O-][Cl+3]([O-])([O-])[O-] [IR-786],partitions efficiently into mitochondria and/or endoplasmic reticulum in a concentration-dependent manner,successfully applied
shorter half-life,somewhat less soluble in blood,"CC1(C)C(/C=C/C=C/C=C/C=C2\N(CCCCS(=O)(=O)O)c3ccc4ccccc4c3C2(C)C)=[N+](CCCCS(=O)(=O)[O-])c2ccc3ccccc3c21 [Indocyanine green, indocyanine green]",,
